Measured values taken from patent US20120220562A1, “Anti-Viral Compounds” (ABBOTT LABAORATORIES, priority 2011, published 2012).

System: HCV 1b-Con1 replicon
Assay: HCV 1b-Con1 replicon assay in the presence of 5% FBS
Type: cell-based
Settings: Hepatitis C virus

| Structure (SMILES) | EC50 [nM] |
| --- | --- |
| COC(=O)N[C@H](C(=O)N1CCC[C@H]1c1nc2cc([C@H]3CC[C@H](c4cc5nc([C@@H]6CCCN6C(=O)[C@@H](NC(=O)OC)[C@@H](C)OC)[nH]c5cc4F)N3c3cc(F)c(N4CCC(C(C)(C)C)CC4)c(F)c3)c(F)cc2[nH]1)[C@@H](C)OC [Example 6.13, methyl {(2S,3R)-1-[(2S)-2-{5-[(2R,5R)-1-[4-(4-tert-butylpiperidin-1-yl)-3,5-difluorophenyl]-5-(6-fluoro-2-{(2S)-1-[N-(methoxycarbonyl)-O-methyl-L-threonyl]pyrrolidin-2-yl}-1H-benzimidazol-5-yl)pyrrolidin-2-yl]-6-fluoro-1H-benzimidazol-2-yl}pyrrolidin-1-yl]-3-methoxy-1-oxobutan-2-yl}carbamate] | < 0.1 |
| COC(=O)N[C@H](C(=O)N1CCC[C@H]1c1nc2cc([C@H]3CC[C@H](c4ccc5[nH]c([C@@H]6CCCN6C(=O)[C@@H](NC(=O)OC)C(C)C)nc5c4)N3c3cc(F)c(N4CCCCC4c4ccccc4)c(F)c3)ccc2[nH]1)C(C)C (stereo partly drawn) [Example 4.50, methyl {(2S)-1-[(2S)-2-{5-[(2R,5R)-1-[3,5-difluoro-4-(2-phenylpiperidin-1-yl)phenyl]-5-{2-[(2S)-1-{(2S)-2-[(methoxycarbonyl)amino]-3-methylbutanoyl}pyrrolidin-2-yl]-1H-benzimidazol-5-yl}pyrrolidin-2-yl]-1H-benzimidazol-2-yl}pyrrolidin-1-yl]-3-methyl-1-oxobutan-2-yl}carbamate] | < 0.1 |
| COC(=O)N[C@H](C(=O)N1CCC[C@H]1c1nc2ccc([C@H]3CC[C@H](c4ccc5nc([C@@H]6CCCN6C(=O)[C@@H](NC(=O)OC)C(C)C)[nH]c5c4)N3c3ccc(N4CCC(F)(c5ccccc5)CC4)cc3)cc2[nH]1)C(C)C [Example 4.36, methyl {(2S)-1-[(2S)-2-{6-[(2R,5R)-1-[4-(4-fluoro-4-phenylpiperidin-1-yl)phenyl]-5-{2-[(2S)-1-{(2S)-2-[(methoxycarbonyl)amino]-3-methylbutanoyl}pyrrolidin-2-yl]-1H-benzimidazol-6-yl}pyrrolidin-2-yl]-1H-benzimidazol-2-yl}pyrrolidin-1-yl]-3-methyl-1-oxobutan-2-yl}carbamate] | < 0.1 |
| COC(=O)N[C@H](C(=O)N1CCC[C@H]1c1nc2cc([C@H]3CC[C@H](c4cc5nc([C@@H]6CCCN6C(=O)[C@@H](NC(=O)OC)[C@@H](C)OC)[nH]c5cc4F)N3c3cc(F)c(N4CCCCC4)c(F)c3)c(F)cc2[nH]1)[C@@H](C)OC [Example 3.36, methyl {(2S,3R)-1-[(2S)-2-{5-[(2R,5R)-1-[3,5-difluoro-4-(piperidin-1-yl)phenyl]-5-(6-fluoro-2-{(2S)-1-[N-(methoxycarbonyl)-O-methyl-L-threonyl]pyrrolidin-2-yl}-1H-benzimidazol-5-yl)pyrrolidin-2-yl]-6-fluoro-1H-benzimidazol-2-yl}pyrrolidin-1-yl]-3-methoxy-1-oxobutan-2-yl}carbamate] | < 0.1 |
| COC(=O)N[C@H](C(=O)N1C2CCC(C2)[C@H]1c1nc2cc([C@H]3CC[C@H](c4ccc5[nH]c([C@@H]6C7CCC(C7)N6C(=O)[C@@H](NC(=O)OC)C(C)C)nc5c4)N3c3cc(F)c(N4CCCCC4)c(F)c3)ccc2[nH]1)C(C)C [Example 3.19, methyl {(2S)-1-[(3S)-3-{5-[(2R,5R)-1-[3,5-difluoro-4-(piperidin-1-yl)phenyl]-5-{2-[(3S)-2-{(2S)-2-[(methoxycarbonyl)amino]-3-methylbutanoyl}-2-azabicyclo[2.2.1]hept-3-yl]-1H-benzimidazol-5-yl}pyrrolidin-2-yl]-1H-benzimidazol-2-yl}-2-azabicyclo[2.2.1]hept-2-yl]-3-methyl-1-oxobutan-2-yl}carbamate] | < 0.1 |
| COC(=O)N[C@H](C(=O)N1CCC[C@H]1c1nc2cc([C@H]3CC[C@H](c4cc5nc([C@@H]6CCCN6C(=O)[C@@H](NC(=O)OC)C6CCCC6)[nH]c5cc4F)N3c3cc(F)c(N4CCC(c5ccccc5)CC4)c(F)c3)c(F)cc2[nH]1)C1CCCC1 [Example 4.40, dimethyl ({(2R,5R)-1-[3,5-difluoro-4-(4-phenylpiperidin-1-yl)phenyl]pyrrolidine-2,5-diyl}bis{(6-fluoro-1H-benzimidazole-5,2-diyl)(2S)pyrrolidine-2,1-diyl[(1S)-1-cyclopentyl-2-oxoethane-2,1-diyl]})biscarbamate] | < 0.1 |
| COC(=O)N[C@H](C(=O)N1C[C@@H](OC)C[C@H]1c1nc2cc([C@H]3CC[C@H](c4ccc5[nH]c([C@@H]6C[C@H](OC)CN6C(=O)[C@@H](NC(=O)OC)C(C)C)nc5c4)N3c3cc(F)c(N4CCCCC4)c(F)c3)ccc2[nH]1)C(C)C [Example 3.7, methyl {(2S)-1-[(2S,4S)-2-{5-[(2R,5R)-1-[3,5-difluoro-4-(piperidin-1-yl)phenyl]-5-{2-[(2S,4S)-4-methoxy-1-{(2S)-2-[(methoxycarbonyl)amino]-3-methylbutanoyl}pyrrolidin-2-yl]-1H-benzimidazol-5-yl}pyrrolidin-2-yl]-1H-benzimidazol-2-yl}-4-methoxypyrrolidin-1-yl]-3-methyl-1-oxobutan-2-yl}carbamate] | < 0.1 |
| COC(=O)N[C@H](C(=O)N1CCC[C@H]1c1nc2cc([C@H]3CC[C@H](c4cc5nc([C@@H]6CCCN6C(=O)[C@@H](NC(=O)OC)C(C)C)[nH]c5cc4F)N3c3cc(F)c(N4CCC(c5ccc6ccccc6c5)CC4)c(F)c3)c(F)cc2[nH]1)C(C)C [Example 4.30, methyl {(2S)-1-[(2S)-2-{5-[(2R,5R)-1-{3,5-difluoro-4-[4-(2-naphthyl)piperidin-1-yl]phenyl}-5-{6-fluoro-2-[(2S)-1-{(2S)-2-[(methoxycarbonyl)amino]-3-methylbutanoyl}pyrrolidin-2-yl]-1H-benzimidazol-5-yl}pyrrolidin-2-yl]-6-fluoro-1H-benzimidazol-2-yl}pyrrolidin-1-yl]-3-methyl-1-oxobutan-2-yl}carbamate] | < 0.1 |
| COC(=O)N[C@H](C(=O)N1CCC[C@H]1c1nc2cc([C@H]3CC[C@H](c4cc5nc([C@@H]6CCCN6C(=O)[C@@H](NC(=O)OC)C(C)C)[nH]c5cc4F)N3c3cc(F)c(N4CCC(c5ccccc5)CC4)c(F)c3)c(F)cc2[nH]1)C(C)C [Example 6.11, methyl {(2S)-1-[(2S)-2-{5-[(2R,5R)-1-[3,5-difluoro-4-(4-phenylpiperidin-1-yl)phenyl]-5-{6-fluoro-2-[(2S)-1-{(2S)-2-[(methoxycarbonyl)amino]-3-methylbutanoyl}pyrrolidin-2-yl]-1H-benzimidazol-5-yl}pyrrolidin-2-yl]-6-fluoro-1H-benzimidazol-2-yl}pyrrolidin-1-yl]-3-methyl-1-oxobutan-2-yl}carbamate] | < 0.1 |
| COC(=O)N[C@H](C(=O)N1CCC[C@H]1c1nc(-c2ccc(-c3ccn(-c4ccc(-c5c[nH]c([C@@H]6CCCN6C(=O)[C@@H](NC(=O)OC)C(C)C)n5)cc4)c3-c3ccc(C(C)(C)C)cc3)cc2)c[nH]1)C(C)C [Example 7.1, methyl {(2S)-1-[(2S)-2-(4-{4-[2-(4-tert-butylphenyl)-1-(4-{2-[(2S)-1-{(2S)-2-[(methoxycarbonyl)amino]-3-methylbutanoyl}pyrrolidin-2-yl]-1H-imidazol-4-yl}phenyl)-1H-pyrrol-3-yl]phenyl}-1H-imidazol-2-yl)pyrrolidin-1-yl]-3-methyl-1-oxobutan-2-yl}carbamate] | < 0.1 |
| COC(=O)N[C@H](C(=O)N1CCC[C@H]1c1nc2cc([C@H]3CC[C@H](c4ccc5[nH]c([C@@H]6CCCN6C(=O)[C@@H](NC(=O)OC)C(C)C)nc5c4)N3c3cc(F)c(N4CCC(c5ccc(F)c(F)c5)CC4)c(F)c3)ccc2[nH]1)C(C)C [Example 3.44, methyl {(2S)-1-[(2S)-2-{5-[(2R,5R)-1-{4-[4-(3,4-difluorophenyl)piperidin-1-yl]-3,5-difluorophenyl}-5-{2-[(2S)-1-{(2S)-2-[(methoxycarbonyl)amino]-3-methylbutanoyl}pyrrolidin-2-yl]-1H-benzimidazol-5-yl}pyrrolidin-2-yl]-1H-benzimidazol-2-yl}pyrrolidin-1-yl]-3-methyl-1-oxobutan-2-yl}carbamate] | < 0.1 |
| COC(=O)N[C@H](C(=O)N1CCC[C@H]1c1nc2cc([C@H]3CC[C@H](c4cc5nc([C@@H]6CCCN6C(=O)[C@@H](NC(=O)OC)C6CCOCC6)[nH]c5cc4F)N3c3cc(F)c(N4CCC(C(C)(C)C)CC4)c(F)c3)c(F)cc2[nH]1)C1CCOCC1 [Example 6.14, dimethyl ({(2R,5R)-1-[4-(4-tert-butylpiperidin-1-yl)-3,5-difluorophenyl]pyrrolidine-2,5-diyl}bis{(6-fluoro-1H-benzimidazole-5,2-diyl)(2S)pyrrolidine-2,1-diyl [(1S)-2-oxo-1-(tetrahydro-2H-pyran-4-yl)ethane-2,1-diyl]}) biscarbamate] | < 0.1 |
| COC(=O)N[C@H](C(=O)N1[C@H](c2nc3cc([C@H]4CC[C@H](c5ccc6[nH]c([C@@H]7C[C@@H]8CCC[C@@H]8N7C(=O)[C@@H](NC(=O)OC)[C@@H](C)OC)nc6c5)N4c4cc(F)c(N5CCCCC5)c(F)c4)ccc3[nH]2)C[C@@H]2CCC[C@@H]21)C(C)C [Example 10.2, methyl {(2S,3R)-1-[(2S,3aS,6aS)-2-{5-[(2R,5R)-1-[3,5-difluoro-4-(piperidin-1-yl)phenyl]-5-{2-[(2S,3aS,6aS)-1-{(2S)-2-[(methoxycarbonyl)amino]-3-methylbutanoyl}octahydrocyclopenta[b]pyrrol-2-yl]-1H-benzimidazol-5-yl}pyrrolidin-2-yl]-1H-benzimidazol-2-yl}hexahydrocyclopenta[b]pyrrol-1(2H)-yl]-3-methoxy-1-oxobutan-2-yl}carbamate] | < 0.1 |
| COC(=O)N[C@H](C(=O)N1CCC[C@H]1c1nc2cc([C@H]3CC[C@H](c4ccc5[nH]c([C@@H]6CCCN6C(=O)[C@@H](NC(=O)OC)C(C)C)nc5c4)N3c3cc(F)c(N4CCCCC4)cc3F)ccc2[nH]1)C(C)C [Example 4.5, methyl {(2S)-1-[(2S)-2-{5-[(2R,5R)-1-[2,5-difluoro-4-(piperidin-1-yl)phenyl]-5-{2-[(2S)-1-{(2S)-2-[(methoxycarbonyl)amino]-3-methylbutanoyl}pyrrolidin-2-yl]-1H-benzimidazol-5-yl}pyrrolidin-2-yl]-1H-benzimidazol-2-yl}pyrrolidin-1-yl]-3-methyl-1-oxobutan-2-yl}carbamate] | < 0.1 |
